In patent US12514845B2, “Ionic-liquid-based formulations for the prevention or treatment of neurological diseases” (Universidade De Aveiro, priority 2022, dated 2026):
Like-named read-outs stand apart in the source and are kept apart here.

How the values were obtained:
[1] = test system: male wistar rats exposed to PQ; format: in vivo; conditions: PQ 2.5 mg/kg/day subcutaneous 4 weeks
Method: (§1) In an embodiment, the biological neuroprotective effect of [Chol]2[N1(4)inh]+N1(4)inh+N1(4)inh when administrated via brain intraventricular infusion route was evaluated in a rat model for PD induced by the exposure to a low chronic dose of PQ, through the analysis of the progression of behavior dysfunction. In this model, the animals are exposed to the toxin during 30 days (4 weeks) and then keeped alive during more 30 days to allow the pathology to progress (Total 8 weeks). The administration of [Chol]2[N1(4)inh]+N1(4)inh started after the first 30 exposure to PQ, via brain intraventricle or intranasal route and lasted the second 30 days. Animals were euthanized at week 8.
In an embodiment, male wistar rats 8-12 week-old were housed in a temperature/humidity-controlled environment under 12 h light/dark cycle with free access to water and food and subjected to subcutaneous chronic administration of PQ, that was carried out using osmotic minipumps (Alzet Durect, Cupertino, CA) at a dose of 2.5 mg/kg/day with a fluid delivery rate of 0.25 μL/hr for a period of four weeks (Alzet model 2004, large pumps). Control groups were implanted with minipump filled with sterile saline, the vehicle used to dissolve PQ. […] Once the rat skull was exposed and, using a digital coordinates system, the infusion sites were determined setting the zero at the bregma point. […] To evaluate the neuroprotective function of the IL-based formulation when infused in brain ventricle, behavior function was evaluated. Motor coordination, balance and grip strength were analyzed using a rat rotarod apparatus model 47700 (Ugo Basile, Comerio, Italy). […] The training was performed in 2 consecutive days, on each day 4 test trials were assessed, each lasting 5 min. […] The rotarod test was performed under an accelerating protocol (4-40 RPM) for 5 min, and the latency to fall was recorded using a specific software. […]

[2] = test system: male wistar rats exposed to PQ; format: in vivo; conditions: PQ 2.5 mg/kg/day subcutaneous 4 weeks, week 8, vs control group (FIG. 22)
Method: as §1, with “via intranasal” for “via brain intraventricular infusion”, “in” for “in a”, “of PQ and” for “of PQ,”
In an embodiment, male wistar rats 8-12 week-old subjected to subcutaneous chronic administration of PQ, that was carried out using osmotic minipumps (Alzet Durect, Cupertino, CA) at a dose of 2.5 mg/kg/day with a fluid delivery rate of 0.25 μL/hr for a period of four weeks (Alzet model 2004, large pumps). […] To evaluate the neuroprotective function of the IL-based formulation when administrated via intranasal route, behavior function was evaluated. Motor coordination, balance and grip strength were analyzed using a rat rotarod apparatus model 47700 (Ugo Basile, Comerio, Italy). […] The training was performed in 2 consecutive days, on each day 4 test trials were assessed, each lasting 5 min. […]

[3] = test system: N27 dopaminergic neuronal cells exposed to MPP+; conditions: 24 h (FIG. 8)
Description: The data are presented as percentage of control as the mean±SEM of at least five repetitions of three independent experiments (n=3).

[4] = test system: N27 dopaminergic neuronal cells exposed to 6OHDA; conditions: 20 μM pretreatment 2.5 h before 50 μM 6OHDA, 24 h (FIG. 7)
Method: (§2) The data are presented as percentage of control and presented as the mean±SEM of at least five repetitions of three independent experiments (n=3). Statistical analysis was performed using one-way ANOVA (non-parametric analysis), followed by the Kruskal-Wallis test, followed by Dunn's multiple comparison test. **p<0.01 compared to CTR or the group of cells exposed to cholinium chloride only +++p<0.001 compared to 6OHDA.

[5] = Afonso 2017, MSc thesis; cited from earlier work
dopaminergic neurons = conditions: PD models; Afonso 2017; cited from earlier work
[6] = test system: dopaminergic neurons in the substantia nigra (SN); test: 6OHDA intrastriatal injection mouse model of PD, TH+ neuron count in SN; format: in vivo; conditions: 6-OHDA 10 μg/2 μL right striatum, day 7, vs control group (FIG. 10)
Method: In an embodiment, the biological neuroprotective effect of [Chol]2[N1(4)inh]+N1(4)inh+N1(4)inh when administrated via brain intraventricular infusion route was evaluated in an mouse model for PD induced by the intracerebral injection of 6OHDA, and the number of dopaminergic neurons in the substantia nigra counted.
In an embodiment, Male C57BL/6 mice were anesthetized and placed in the digital stereotaxic frame. Once the mouse skull was exposed, and using a digital coordinates system, injection and infusion sites were determined setting the zero at the bregma point. Hereupon, an injection of 6-OHDA (10 μg/2 μL of ascorbic acid 0.1% v/v) was performed in the right striatum (ST) of each animal using the coordinates: medial-lateral (ML): −2 mm; anterior-posterior (AP): 0.6 mm; dorsoventral (DV): −3.0 mm, using a Hamilton syringe at speed of 0.2 μL/min. The delivery of 0.2 mg/kg/day of [Chol]2[N1(4)inh]+N1(4)inh+N1(4)inh was performed as describe above. […]
The results are expressed as a percentage of Saline (Group (1) which are animals exposed only to saline solution) and represented as the mean±SEM of at least 3 independent experiments (n=3-4). […]

in vitro = conditions: rat
Method: as §2

With `C[n+]1ccc(-c2cc[n+](C)cc2)cc1` [PQ, paraquat] the “reduction in the distance travelled (open-field)” value ([1]; week 8, vs control (FIG. 20)) was 55%, the “reduction of speed (open-field)” value ([1]; week 8, vs control (FIG. 21)) was 50% and the “reduction in the latency to fall (rotarod)” value ([1]; week 8, vs control group (FIG. 19)) was 43%. The “reduction in the latency to fall (rotarod)” value [2] was 47%.

With `C[n+]1ccc(-c2ccccc2)cc1` [MPP+, 1-methyl-4-phenylpyridinium] the “loss of N27 cells viability” value ([3]; 10 μM MPP+) was 45%.

With `C[N+](C)(C)CCO.[Cl-]` [cholinium chloride] the “prevention of 6OHDA-induced neurotoxicity (cell viability)” value [4] was “not prevented” and the “prevention of MPP+ dopaminergic neurotoxicity (cell viability)” value ([3]; 20 μM pretreatment 2.5 h before 10 μM MPP+) was “did not exert any protective effect”.

In the case of `COc1cc(C(C)=O)ccc1[O-].C[N+](C)(C)CCO` [[Chol][Apo], cholinium apocynate], the “increase in water solubility versus Apo” value [5] is listed as 50 fold and the “6OHDA-induced toxicity in dopaminergic neurons” value (dopaminergic neurons) is listed as “significant reduction”.

For `NCCc1cc(O)c(O)cc1O` [6OHDA, 6-hydroxydopamine], the “reduction in the number of SN dopaminergic neurons” value [6] was 45% and the cytotoxicity at 24 h, 50 µM (in vitro) was 45%.
